In patent publication US12178842B2, “PCSK9 antagonist compounds” (MERCK SHARP & DOHME LLC, priority 2019, dated 2024):

Legend:
Format in all cases: binding
PCSK9 [1] = biological target: T1, PCSK9 (Homo sapiens, UniProt Q8NBP7); assay: PCSK9 Alexa FRET Standard TR-FRET assay
T1 construct: biotin (biotinylated); purchased
Summary of the method: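 Ki (nM) calculated from sigmoidal-fit IC50 and the KD of an AlexaFluor-labelled cyclic peptide (20 nM final) competing with compound for biotinylated PCSK9 (0.5 nM) bound to Eu-streptavidin (1.25 nM). Incubation at least 2 h, room temperature, HEPES pH 7.4 buffer with CaCl2; falling europium counts flag false positives.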

PCSK9 [2] = biological target: T1, PCSK9; assay: PCSK9 Alexa FRET Plus TR-FRET assay
Summary of the method: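 Compounds displace an AlexaFluor-labeled cyclic peptide (1920 nM solution, not final) from europium-tagged PCSK9; time-resolved FRET read after ≥2 h at room temperature. Ki derived from fitted IC50 and peptide KD, europium donor counts monitored to detect compound interference, results given in nanomolar.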

PCSK9 [3] = biological target: T1, PCSK9; assay: PCSK9 Alexa FRET Ultra TR-FRET assay
Summary of the method: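 TR-FRET read after ≥2 h at room temperature between europium-PCSK9 and an AlexaFluor cyclic peptide, stated as a 1920 nM solution. Sigmoidal nonlinear regression gives IC50, and Ki in nM follows from the peptide KD; europium counts are monitored for compound interference.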

[4] = Ki calculated from IC50 and KD of AF cyclic peptide Reagent A, 0.5 nM PCSK9, 20 nM AF cyclic peptide, read-out: Alexa FRET Stdt TR-FRET
[5] = Ki calculated from IC50 and KD of AF cyclic peptide Reagent B, 0.5 nM PCSK9, 960 nM AF cyclic peptide, read-out: Alexa FRET Plus TR-FRET
[6] = Ki Ultra, calculated from IC50 and KD of AF cyclic peptide, 0.5 nM PCSK9, 960 nM AF cyclic peptide, read-out: Alexa FRET Ultra TR-FRET

T1 sequence (Q8NBP7 153-692): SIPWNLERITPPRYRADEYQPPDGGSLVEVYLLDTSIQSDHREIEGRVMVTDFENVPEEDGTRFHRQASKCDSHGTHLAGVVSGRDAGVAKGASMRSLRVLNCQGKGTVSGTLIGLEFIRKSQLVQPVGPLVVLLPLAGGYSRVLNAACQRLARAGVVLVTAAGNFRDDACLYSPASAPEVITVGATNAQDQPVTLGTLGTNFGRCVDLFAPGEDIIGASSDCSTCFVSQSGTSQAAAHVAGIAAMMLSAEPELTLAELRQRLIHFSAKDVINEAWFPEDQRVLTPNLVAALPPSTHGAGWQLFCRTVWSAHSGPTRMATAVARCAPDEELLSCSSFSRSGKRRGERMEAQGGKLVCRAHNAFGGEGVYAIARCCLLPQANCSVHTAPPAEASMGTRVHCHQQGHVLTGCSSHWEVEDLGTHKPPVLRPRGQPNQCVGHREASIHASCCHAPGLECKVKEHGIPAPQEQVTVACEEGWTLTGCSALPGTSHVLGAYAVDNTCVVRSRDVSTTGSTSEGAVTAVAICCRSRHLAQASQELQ

| Structure (SMILES) | Ki (PCSK9 [1]; [4]) [pM] | Ki (PCSK9 [2]; [5]) [pM] | Ki (PCSK9 [3]; [6]) [pM] | Ki (PCSK9 [2]) [pM] | Ki (PCSK9 [3]) [pM] | Ki (PCSK9 [1]) [pM] |
| --- | --- | --- | --- | --- | --- | --- |
| COc1ccc(C[C@@H]2NC(=O)[C@H]([C@@H](C)O)NC(=O)[C@@H]3[C@@H]4CCN3C(=O)[C@@H]3Cc5cn(c6ccc(F)cc56)CCCCCCN(Cc5ccc(cc5)CCNC(=O)[C@]5(C)CCCN5C2=O)C(=O)CCC(=O)N[C@@H](C)C(=O)N[C@H](CNC(=O)CCCCC[N+](C)(C)CCNC(=O)COCCOCCNC(=O)COCCOCCNC(=O)CC[C@H](NC(=O)CCCCCCCCCCCCCCCCCCC(=O)O)C(=O)O)C(=O)N[C@@H](Cc2cccc(c2)CNC(=O)CO4)C(=O)N3)cc1 [Ex-27] | < 1260 | – | – | 14 | 6 | – |
| COc1ccc(C[C@@H]2NC(=O)[C@H]([C@@H](C)O)NC(=O)[C@@H]3[C@@H]4CCN3C(=O)[C@@H]3Cc5cn(c6ccc(F)cc56)CCCCCCN(Cc5ccc(cc5)CCNC(=O)[C@]5(C)CCCN5C2=O)C(=O)CCC(=O)N[C@@H](C)C(=O)N[C@H](CNC(=O)CC[C@H](NC(=O)CCOCCOCC[N+](C)(C)CCNC(=O)COCCOCCNC(=O)COCCOCCNC(=O)CC[C@H](NC(=O)CCCCCCCCCCCCCCCCC(=O)O)C(=O)O)C(=O)O)C(=O)N[C@@H](Cc2cccc(c2)CNC(=O)CO4)C(=O)N3)cc1 [Ex-8] | < 1260 | – | – | 16 | 8 | – |
| COc1ccc(C[C@@H]2NC(=O)[C@H]([C@@H](C)O)NC(=O)[C@@H]3[C@@H]4CCN3C(=O)[C@@H]3Cc5cn(c6ccc(F)cc56)CCCCCCN(Cc5ccc(cc5)CCNC(=O)[C@]5(C)CCCN5C2=O)C(=O)CCC(=O)N[C@@H](C)C(=O)N[C@H](CNC(=O)CCOCCOCC[N+](C)(C)CCNC(=O)CCCCCCCCCCCCCCCCC(=O)O)C(=O)N[C@@H](Cc2cccc(c2)CNC(=O)CO4)C(=O)N3)cc1 [Ex-23] | < 1260 | < 6 | 7 | – | – | – |
| COc1ccc(C[C@@H]2NC(=O)[C@H]([C@@H](C)O)NC(=O)[C@@H]3[C@@H]4CCN3C(=O)[C@@H]3Cc5cn(c6ccc(F)cc56)CCCCCCN(Cc5ccc(cc5)CCNC(=O)[C@]5(C)CCCN5C2=O)C(=O)CCC(=O)N[C@@H](C)C(=O)N[C@H](CNC(=O)[C@@H](CCCC[N+](C)(C)C)NC(=O)COCCOCCNC(=O)COCCOCCNC(=O)CC[C@H](NC(=O)CC[C@H](NC(=O)CCCCCCCCCCCCCCCCC(=O)O)C(=O)O)C(=O)O)C(=O)N[C@@H](Cc2cccc(c2)CNC(=O)CO4)C(=O)N3)cc1 [Ex-55] | < 1260 | 12 | 10 | – | – | – |
| COc1ccc(C[C@@H]2NC(=O)[C@H]([C@@H](C)O)NC(=O)[C@@H]3[C@@H]4CCN3C(=O)[C@@H]3Cc5cn(c6ccc(F)cc56)CCCCCCN(Cc5ccc(cc5)CCNC(=O)[C@]5(C)CCCN5C2=O)C(=O)CCC(=O)N[C@@H](C)C(=O)N[C@H](CNC(=O)CCOCCOCC[N+](C)(C)CCNC(=O)COCCOCCNC(=O)COCCOCCNC(=O)CC[C@@H](NC(=O)CC[C@@H](NC(=O)CCCCCCCCCCCCCCCCC(=O)O)C(=O)O)C(=O)O)C(=O)N[C@@H](Cc2cccc(c2)CNC(=O)CO4)C(=O)N3)cc1 [Ex-49] | – | < 6 | 3 | – | – | < 1260 |
| COc1ccc(C[C@@H]2NC(=O)[C@H]([C@@H](C)O)NC(=O)[C@@H]3[C@@H]4CCN3C(=O)[C@@H]3Cc5cn(c6ccc(F)cc56)CCCCCCN(Cc5ccc(cc5)CCNC(=O)[C@]5(C)CCCN5C2=O)C(=O)CCC(=O)N[C@@H](C)C(=O)N[C@H](CNC(=O)COCCOCC[N+](C)(C)CCOCCNC(=O)COCCOCCNC(=O)COCCOCCNC(=O)CC[C@H](NC(=O)CCCCCCCCCCCCCCC(=O)O)C(=O)O)C(=O)N[C@@H](Cc2cccc(c2)CNC(=O)CO4)C(=O)N3)cc1 [compound 45] | < 1260 | < 6 | 2 | – | – | – |
| COc1ccc(C[C@@H]2NC(=O)[C@H]([C@@H](C)O)NC(=O)[C@@H]3[C@@H]4CCN3C(=O)[C@@H]3Cc5cn(c6ccc(F)cc56)CCCCCCN(Cc5ccc(cc5)CCNC(=O)[C@]5(C)CCCN5C2=O)C(=O)CCC(=O)N[C@@H](C)C(=O)N[C@H](CNC(=O)COCCOCCNC(=O)CCOCCOCC[N+](C)(C)CCNC(=O)COCCOCCNC(=O)COCCOCCNC(=O)CC[C@H](NC(=O)CCCCCCCCCCCCCCCCC(=O)O)C(=O)O)C(=O)N[C@@H](Cc2cccc(c2)CNC(=O)CO4)C(=O)N3)cc1 [compound 32] | < 1260 | 9 | 11 | – | – | – |
| COc1ccc(C[C@@H]2NC(=O)[C@H]([C@@H](C)O)NC(=O)[C@@H]3[C@@H]4CCN3C(=O)[C@@H]3Cc5cn(c6ccc(F)cc56)C/C=C/CCCN(Cc5ccc(cc5)CCNC(=O)[C@]5(C)CCCN5C2=O)C(=O)CCC(=O)N[C@@H](C)C(=O)N[C@H](CNC(=O)CCOCCOCC[N+](C)(C)CCNC(=O)COCCOCCNC(=O)COCCOCCNC(=O)CC[C@H](NC(=O)CC[C@H](NC(=O)CCCCCCCCCCCCCCCCC(=O)O)C(=O)O)C(=O)O)C(=O)N[C@@H](Cc2cccc(c2)CNC(=O)CO4)C(=O)N3)cc1 [Ex-44] | < 1260 | < 6 | 3 | – | – | – |
| COc1ccc(C[C@@H]2NC(=O)[C@H]([C@@H](C)O)NC(=O)[C@@H]3[C@@H]4CCN3C(=O)[C@@H]3Cc5cn(c6ccc(F)cc56)CCCCCCN(Cc5ccc(cc5)CCNC(=O)[C@]5(C)CCCN5C2=O)C(=O)CCC(=O)N[C@@H](C)C(=O)N[C@H](CNC(=O)CCCCC[N+](C)(C)CCNC(=O)COCCOCCNC(=O)COCCOCCNC(=O)CC[C@H](NC(=O)CCCCCCCCCCCCCCC(=O)O)C(=O)O)C(=O)N[C@@H](Cc2cccc(c2)CNC(=O)CO4)C(=O)N3)cc1 [Example 3] | < 1260 | – | – | < 6 | 5 | – |

Continued, in another order:

| Ki (PCSK9 [1]; [4]) [pM] | Ki (PCSK9 [2]; [5]) [pM] | Ki (PCSK9 [3]; [6]) [pM] | Structure (SMILES) | Ki (PCSK9 [2]) [pM] | Ki (PCSK9 [3]) [pM] | Ki (PCSK9 [1]) [pM] |
| --- | --- | --- | --- | --- | --- | --- |
| < 1260 | 6 | 8 | COc1ccc(C[C@@H]2NC(=O)[C@H]([C@@H](C)O)NC(=O)[C@@H]3[C@@H]4CCN3C(=O)[C@@H]3Cc5cn(c6ccc(F)cc56)CCCCCCN(Cc5ccc(cc5)CCNC(=O)[C@]5(C)CCCN5C2=O)C(=O)CCC(=O)N[C@@H](C)C(=O)N[C@H](CNC(=O)CCCCC[N+](C)(C)CCNC(=O)CCCCC[N+](C)(C)CCNC(=O)COCCOCCNC(=O)COCCOCCNC(=O)CC[C@H](NC(=O)CCCCCCCCCCCCCCCCC(=O)O)C(=O)O)C(=O)N[C@@H](Cc2cccc(c2)CNC(=O)CO4)C(=O)N3)cc1 [Ex-26] | – | – | – |
| < 1260 | < 6 | 5 | COc1ccc(C[C@@H]2NC(=O)[C@H]([C@@H](C)O)NC(=O)[C@@H]3[C@@H]4CCN3C(=O)[C@@H]3Cc5cn(c6ccc(F)cc56)CCCCCCN(Cc5ccc(cc5)CCNC(=O)[C@]5(C)CCCN5C2=O)C(=O)CCC(=O)N[C@@H](C)C(=O)N[C@H](CNC(=O)CCOCCOCC[N+](C)(C)CCNC(=O)COCCOCCNC(=O)COCCOCCNC(=O)CCC(CS(=O)(=O)O)NC(=O)CCCCCCCCCCCCCCCCC(=O)O)C(=O)N[C@@H](Cc2cccc(c2)CNC(=O)CO4)C(=O)N3)cc1 (stereo partly drawn) [Ex-67] | – | – | – |
| < 1260 | 44 | 16 | CCCCCCCCCCCCCCCC(=O)NCC[N+](C)(C)CCOCCOCCC(=O)NC[C@H]1NC(=O)[C@H](C)NC(=O)CCC(=O)N2CCCCCCn3cc(c4cc(F)ccc43)C[C@@H]3NC(=O)[C@H](Cc4cccc(c4)CNC(=O)CO[C@H]4CCN(C3=O)[C@@H]4C(=O)N[C@@H]([C@@H](C)O)C(=O)N[C@@H](Cc3ccc(OC)cc3)C(=O)N3CCC[C@@]3(C)C(=O)NCCc3ccc(cc3)C2)NC1=O [Ex-36] | – | – | – |
| < 1260 | 8 | 4 | COc1ccc(C[C@@H]2NC(=O)[C@H]([C@@H](C)O)NC(=O)[C@@H]3[C@@H]4CCN3C(=O)[C@@H]3Cc5cn(c6ccc(F)cc56)CCCCCCN(Cc5ccc(cc5)CCNC(=O)[C@]5(C)CCCN5C2=O)C(=O)CCC(=O)N[C@@H](C)C(=O)N[C@H](CNC(=O)COCCOCC[N+](C)(C)CCNC(=O)COCCOCCNC(=O)COCCOCCNC(=O)CC[C@H](NC(=O)CCCCCCCCCCCCCCCCC(=O)O)C(=O)O)C(=O)N[C@@H](Cc2cccc(c2)CNC(=O)CO4)C(=O)N3)cc1 [Ex-40] | – | – | – |
| < 1260 | 14 | 16 | COc1ccc(C[C@@H]2NC(=O)[C@H]([C@@H](C)O)NC(=O)[C@@H]3[C@@H]4CCN3C(=O)[C@@H]3Cc5cn(c6ccc(F)cc56)CCCCCCN(Cc5ccc(cc5)CCNC(=O)[C@]5(C)CCCN5C2=O)C(=O)CCC(=O)N[C@@H](C)C(=O)N[C@H](CNC(=O)CC[C@H](NC(=O)CCCCC[N+](C)(C)CCNC(=O)COCCOCCNC(=O)COCCOCCNC(=O)CC[C@H](NC(=O)CCCCCCCCCCCCCCCCC(=O)O)C(=O)O)C(=O)O)C(=O)N[C@@H](Cc2cccc(c2)CNC(=O)CO4)C(=O)N3)cc1 [compound 33] | – | – | – |
